Measurements reported in patent publication US9416347B2, “Method of treating bacterial contamination in a microalgae culture with pH shock” (Heliae Development LLC, priority 2014, dated 2016).
Counter-ions that a name gives are not always drawn. Like-named read-outs stand apart in the source and are kept apart here.

What was measured:
Chlorella = conditions: pH 3.5 with HCl (37%) for 15 minutes, open raceway pond
Cytophaga sp. = conditions: pH treated versus untreated culture, over the life of the cultures
[1] = test system: Vampirovibrio chlorellavorus; conditions: culture receiving the second pH treatment, 85% before treatment
Source text: (§1) Some bacteria in the microalgae culture may attach to the cell wall of the microalgae, eventually lysing the cell wall of the microalgae and killing the microalgae. […] An example of bacteria known to attach to microalgae is Vampirovibrio chlorellavorus.
Samples were taken every two days to determine the cell dry weight (g/L) of the cultures.

[2] = test system: live bacteria in Chlorella culture; conditions: for bacteria count: pH 3.5 with HCl (37%) for 15 minutes, open raceway pond
Chlorella sp. [3] = conditions: culture at 1,029 mg/L acetate, pH 3.5 for 15 minutes, returned to 7.5 with 2 M NaOH
Description: The pH treated culture samples were maintained at the culture pH of 3.5 for 15 minutes before returning the culture pH to 7.5 by adding 2 M NaOH.
The pH treatment was applied directly into the culture, without previous concentration or subsequent dilution through inoculation into a fresh media. All cultures were incubated with shaking at 100 rpm in 5% carbon dioxide and 25° C. […] 100 μM photon/m^2 s of light was also provided to create mixotrophic growth conditions. The cultures were monitored for 4 days (96 hours with dry weight samples taken at 0, 48, and 96 hours). Residual acetate analyses were carried at the end of the experiment.

Chlorella sp. [4] = conditions: pH lowered from about 7.5 to 3.5 for 15 minutes, raised back with 5M NaOH
Description: The first 400 ml culture was maintained as an untreated control at a pH of about 7.5. […] The pH treatments were applied directly to the cultures, without previous concentration of the microalgae or subsequent dilution through inoculation into fresh culture media. All cultures were incubated with shaking at 100 rpm in 5% carbon dioxide and 25° C. […] 100 μM photon/m^2 s of light was also provided to create mixotrophic growth conditions. The cultures were monitored for 4 days (96 hours with dry weight samples taken at 0, 48, and 96 hours). Live bacteria count samples were taken at 0 and 48 hours, and quantified using aerobic colony forming units (CFU) obtained from plate counts utilizing Petrifilm available from 3M (St. Paul, Minn.). A bacteria to microalgae ratio was also quantified using guava flow cytometry.

Chlorella sp. [5] = conditions: for cell dry weight: second pH treatment 7.5 to 3.5 with HCl (18%) for 15 minutes, raised with 4 M NaOH
[6] = test system: bacteria attached to Chlorella
Source text: as §1

Cl [HCl, hydrochloric acid]
cell dry weight (Chlorella; raised to 8.5 with NaOH, 0 h): 1.2 g/L
cell dry weight (Chlorella; 11 h): 1.4 g/L
cell dry weight (Chlorella; 24 h): 1.6 g/L
cell dry weight (Chlorella; 35 h): 2.2 g/L
cell dry weight (Chlorella; 48 h): 2.5 g/L
cell dry weight (Chlorella; 59 h): 3.5 g/L
cell dry weight (Chlorella; 72 h): 4.0 g/L
cell dry weight (Chlorella; 83 h): 4.8 g/L
cell dry weight (Chlorella; 96 h): 5.1 g/L
cell dry weight (Chlorella; 107 h): 5.4 g/L
cell dry weight (Chlorella; 120 h): 5.7 g/L
cell dry weight (Chlorella; 131 h): 6.1 g/L
cell dry weight (Chlorella; 144 h): 6.1 g/L
cell dry weight (Chlorella; 155 h (after partial harvest)): 1.9 g/L
cell dry weight (Chlorella; 168 h): 1.8 g/L
Cytophaga sp. detection by qPCR (Cytophaga sp.): detected in the untreated culture only
bacteria attachment level ([1]; day 4 (96 h)): about 4.5%
bacteria attachment ([1]; within 48 hours): 0%
total bacteria live count lower than the untreated culture ([2]; immediately following treatment): approximately 2 logs
bacteria count ([2]; 0 h): 4.00E+04 CFU
bacteria count ([2]; 24 h): 1.50E+07 CFU
bacteria count ([2]; 48 h): 1.20E+08 CFU
bacteria count ([2]; 72 h): 2.20E+08 CFU
bacteria count ([2]; 96 h): 1.30E+08 CFU
bacteria count ([2]; 120 h): 1.20E+08 CFU
bacteria count ([2]; 144 h): 1.50E+08 CFU
Cell Dry Weight (Chlorella sp. [3]; 0 h): 0.89 ± 0.01 g/L
Cell Dry Weight (Chlorella sp. [3]; 48 h): 1.88 ± 0.04 g/L
Cell Dry Weight (Chlorella sp. [3]; 96 h): 2.58 ± 0.01 g/L
cell dry weight (Chlorella sp. [4]; 0 h): 0.80 ± 0.03 g/L
cell dry weight (Chlorella sp. [4]; 48 h): 2.54 ± 0.00 g/L
cell dry weight (Chlorella sp. [4]; 96 h): 3.78 ± 0.00 g/L
productive life of culture (Chlorella sp. [5]; culture that received one pH treatment): approximately 14 days
productive life of culture (lasted until day, then discarded) (Chlorella sp. [5]; culture that received two pH treatments): ≥ 20 days
cell dry weight (Chlorella sp. [5]; 0 h): 1.05 (g/L)
cell dry weight (Chlorella sp. [5]; 48 h): 2.79 g/L
cell dry weight (Chlorella sp. [5]; 96 h): 3.87 g/L
cell dry weight (Chlorella sp. [5]; 144 h): 4.79 g/L
time bacterial attachment remained below 10% ([6]; pH treated culture): over 100 hours
bacterial attachment in the pH treated culture ([6]; within 12 hours, drop from about 50%): under 10%
